How the values were obtained:
Type in all cases: in vivo
Phytophthora cinnamomi [1] = experiment: Example 1: soil treatment of boxwoods inoculated with P. cinnamomi; details: boxwood; for Marketability: 1(dead)-5(excellent) Scale: G41 8 oz, mefenoxam 1 oz/100 gal, mean of 10
Procedure: (§1) Except for the non-inoculated controls, each plant was treated with P. cinnamomi inoculum to induce disease. Boxwood plants were obtained from a local nursery and placed into a 6 inch diameter pot containing pine bark: peat (3:1 volume:volume) potting media. The medium was amended with 14 lb of 17-7-12 Osmocote fertilizer per cubic yard of mix.
(§2) Inoculum of P. cinnamomi was grown on sterilized rice grains for 14 days at 24-26° C. prior to inoculation. To treat the plants with the pathogen inoculum, four holes were punched equidistant around the root ball, and four colonized rice grains were inserted in each hole. Each of the test materials was applied at the specified rate to the soil surface, using a 2.5 pint hand held sprayer. The chemical standard, mefenoxam (Subdue®), was applied to the soil surface 24 hours after the plant roots were inoculated with P. cinnamomi inoculum. T22 and G41 were applied to the soil surface 72 hours prior to root inoculation with P. cinnamomi.
(§3) A marketability rating was determined for each plant at one day after inoculation (DAI) with P. cinnamomi, 22 days DAI, and 54 days DAI. Using the following scale, each plant was rated by three researchers and the mean value was determined for each plant: • 1: Dead plants • 2: Poor, unsalable (severe chlorosis and poor top growth) • 3: Moderate, salable (slight chlorosis and/or stunting; plant growth between 2 and 4) • 4: Salable (few individual leaves with chlorosis, green foliage; plant growth between 3 and 5) • 5: Excellent health, salable (no chlorosis; optimum top growth)
(§4) At 1, 22, and 54 DAI, plant height was measured from the crown to the highest point of the plant. Dry root weight and fresh shoot weight were determined at 22 and 54 DAI.
(§5) At 22 DAI, a subset of plants from each treatment were removed and examined. Plants were removed from the pots, and excess soil was carefully brushed from the roots. Above ground portions (shoots) were cut away from the below ground portions and dried in an oven. Dry root weights and fresh shoot weights were recorded. At 54 DAI, the experiment was terminated; the remaining plants were treated as above to determine dry root and shoot weights. Data were subjected to analysis of variance and treatment means were separated by Student-Newman-Keuls test at P=0.05.

Phytophthora cinnamomi [2] = experiment: Example 2: spray treatment of boxwoods challenged with Phytophthora cinnamomi; details: boxwood, P. cinnamomi; for Dry Root Weight / Fresh Shoot Weight: mean of 5; for Marketability: 1(dead)-5(excellent) Scale: G41 4 oz, T22 4 oz, mefenoxam 1 oz/100 gal; for Marketability: 1(dead)-5(excellent) Scale / Height: mean of 10
Procedure: as §1, §2, §3, §4, §5
Except for the non-inoculated controls, each plant was treated with P. cinnamomi inoculum to induce disease. The methodology for this test was identical to that described in Example 1.

Phytophthora nicotianae = experiment: Example 3: spray treatment of azaleas challenged with Phytophthora nicotianae; details: azalea, P. nicotianae; for Dry Root Weight / Fresh Shoot Weight: mean of 5; for Marketability: 1(dead)-5(excellent) Scale: G41 4 oz, T22 4 oz, mefenoxam 1 oz/100 gal; for Marketability: 1(dead)-5(excellent) Scale / Height: mean of 10
Procedure: as §2, §3, §4, §5
Except for the non-inoculated controls, each plant was treated with P. nicotianae inoculum to induce disease. The methodology for this test was identical to that described in Example 1.

[3] = test system: Fusarium oxysporum f. sp. lycopersici; experiment: Example 4: soil drench of tomato seedlings challenged with Fusarium oxysporum; details: 28 DAI, biologicals 4 oz, mefenoxam 1 oz/100 gal, mean of 28 plants
Procedure: (§6) Tomato, Lycopersicon esculentum, var esculentum ‘Beefsteak’, seedlings were subjected to the soil drench treatments set forth in Table 13. Except for the non-inoculated controls, each plant was treated with inoculum of the pathogen F. oxysporum f. sp. lycopersici to induce disease.
(§7) Tomatoes were started in 128-cell flats from seeds in a general purpose, peat-based growing medium. Plants were watered with a 100 ppm solution of 20-20-20 water-soluble plant food (Jack's Classic). At 4-5 days after planting, the seedlings were drenched with the biological materials mixed in water. Seedlings not receiving treatments at this time were treated only with the blank formulation (without Trichoderma).
(§8) Inoculum of F. oxysporum was grown on sterilized rice grains for 7 days at 24-26° C. The rice was uniformly blended into growing medium at a rate of 5% (weight: weight). Seven day old tomato seedlings were transplanted into 4 inch pots that contained the pathogen inoculum on rice. A set of untreated control seedlings were transplanted into pots containing the growing medium plus uninoculated rice. […]
Plants were maintained in a growing room at 20-24° C. under a 12 hour light: dark cycle. […] The material was dried in an oven at 60° C. until completely dry (approximately 24 hours) and the weights recorded. […] Significant differences between treatment means were determined using Tukey's HSD test at P=0.05.

Pythium irregulare [4] = experiment: Example 5: soil drench of tomato seedlings challenged with Pythium irregulare; details: 21 DAI, biologicals 4 oz, mefenoxam 1 oz/100 gal, mean of 28 plants
Procedure: Tomato, Lycopersicon esculentum, var esculentum ‘Beefsteak’, seedlings were subjected to the soil drench treatments set forth in Table 13. Except for the non-inoculated controls, each plant was treated with inoculum of the pathogen Pythium irregulare to induce disease.
Tomato seedlings were grown and treated as described above in Example 2. Sterile rice was inoculated with a suspension of P. irregulare at the rate of 1 colonized PDA Petri plate/1 liter of sterile water. Rice was incubated for 24 hours at 24-26° C. Infested rice was uniformly blended into the growing medium at a rate of 5% (weight: weight).
Tomato seedlings were transplanted into 4 inch pots that contained the pathogen inoculum on rice. A set of untreated control seedlings were transplanted into pots containing the growing medium plus rice, but no pathogen. A set of seedlings was drenched with the label rate of mefenoxam to serve as the chemical standard and a set of treated control seedlings was transplanted into medium containing the pathogen.
Plants were maintained in a growing room at 20-24° C. under a 12 hour light: dark cycle. Plants were watered with a nutrient solution as described above. […] The material was dried in an oven until completely dry (approximately 24 hours) and the weights recorded.

Pythium aphanidermatum = experiment: Example 6: cucumber seed coating against Pythium aphanidermatum damping-off; details: P. aphanidermatum inoculum, greenhouse
Procedure: Cucumber, Cucumis sativus, var Marketmore 76 seeds were coated with T harzianum and/or T. virens, or mefenoxam as described by Pill et al. (Pill et. al., Scientia Horticulturae 121:54-62 (2009), which is hereby incorporated by reference in its entirety). Seeds were planted into flats with or without P. aphanidermatum inoculum. The experiment was conducted in a greenhouse with natural lighting and temperature settings of 25/22° C. (day/night). The numbers of seedlings emerged were recorded daily until there was no increase for two consecutive days. Diseased plants were recorded as either pre- (no seedling emergence) or post-emergent (shoot lodging).

Rhizoctonia solani = experiment: Example 7: soil drench of tomato seedlings challenged with Rhizoctonia solani; details: R. solani, 23 DAI, biologicals 4 oz, mefenoxam 1 oz/100 gal, mean of 28 plants
Procedure: Tomato, Lycopersicon esculentum, var esculentum ‘Beefsteak’, seedlings were subjected to the soil drench treatments set forth in Table 13, except that there were no untreated control plants. Except for the non-inoculated controls, each plant was treated with inoculum of the pathogen R. solani to induce disease.
Tomato seedlings were grown and treated as described above in Example 2. Sterile rice was inoculated with agar plugs from PDA Petri plates containing growing colonies of R. solani at a rate of one colonized PDA plate/500 g rice. Rice was incubated for 10 days at 24-26° C. Infested rice was uniformly blended into the growing medium at a rate of 5% (weight: weight).
Tomato seedlings were transplanted into 4 inch pots that contained the pathogen inoculum on rice. The untreated check plants became contaminated with an unknown disease and were not included in the analysis. A set of seedlings was drenched with the label rate of mefenoxam to serve as the chemical standard and a set of treated control seedlings was transplanted into medium containing the pathogen.
Plants were maintained in a growing room at 20-24° C. under a 12 hour light: dark cycle. Plants were watered with a nutrient solution as described above. […] The material was dried in an oven at 60° C. until completely dry (approximately 24 hours) and the weights recorded. Data were analyzed as described in Example 2, above.

Pythium irregulare [5] = experiment: Example 8 Experiment 1: soil drench of cucumber seedlings challenged with Pythium irregulare (T22 and G21); details: 28 DAI, biologicals 4 oz, mefenoxam 1 oz/100 gal, mean of 14 plants
Procedure: Except for the non-inoculated controls, each plant was treated with inoculum of the pathogen Pythium irregulare to induce disease.
Seedlings were grown and treated as described in Example 4. Sterile rice was inoculated with a suspension of P. irregulare at the rate of one colonized PDA Petri plate/1 liter of sterile water. Rice was incubated for 24 hours at 24-26° C. Infested rice was uniformly blended into the growing medium at a rate of 5% (weight: weight).
Cucumber seedlings were transplanted into 4 inch pots that contained the pathogen inoculum on rice. A set of untreated control seedlings were transplanted into pots containing the growing medium plus rice, but no pathogen. A set of seedlings was drenched with the label rate of mefenoxam to serve as the chemical standard and a set of treated control seedlings was transplanted into medium containing the pathogen.
Plants were maintained in a growing room at 20-24° C. under a 12 hour light: dark cycle. At 28 DAI, the experiment was terminated, and the plants were each separated into two parts: root (below ground) and shoot (above ground). The material was dried in an oven at 60° C. until completely dry (approximately 24 hours) and the weights recorded. Data were analyzed as described in Example 4.

[6] = test system: Fusarium oxysporum f. sp. lycopersici; experiment: Example 8 Experiment 2: soil drench of tomato seedlings challenged with Fusarium oxysporum (T12 and G41); details: 28 DAI, biologicals 4 oz, mefenoxam 1 oz/100 gal, mean of 14 plants
Procedure: as §6, §7, §8
Plants were maintained in a growing room at 20-24° C. under a 12 hour light: dark cycle. […] The material was dried in an oven at 60° C. until completely dry (approximately 24 hours) and the weights recorded. […] Significant differences between treatment means were determined using Tukey's HSD test at P=0.05. […]

COCC(=O)N(c1c(C)cccc1C)[C@H](C)C(=O)OC [Mefenoxam, mefenoxam]
Marketability: 1(dead)-5(excellent) Scale (Phytophthora cinnamomi [1]; 5/26, T22 4 oz): 5 a | Height (Phytophthora cinnamomi [1]; 5/26, mean of 10): 13.8 a cm | Marketability: 1(dead)-5(excellent) Scale (Phytophthora cinnamomi [1]; 6/21, T22 4 oz): 4.4 a | Dry Root Weight (Phytophthora cinnamomi [1]; 6/21, mean of 5): 16.7 a g | Fresh Shoot Weight (Phytophthora cinnamomi [1]; 6/21, mean of 5): 86.2 a g | Height (Phytophthora cinnamomi [1]; 6/21, mean of 10): 39.7 a cm | Marketability: 1(dead)-5(excellent) Scale (Phytophthora cinnamomi [1]; 7/10, T22 4 oz): 4.7 a | Dry Root Weight (Phytophthora cinnamomi [1]; 7/10, mean of 5): 30.1 a g | Fresh Shoot Weight (Phytophthora cinnamomi [1]; 7/10, mean of 5): 108.3 a g | Height (Phytophthora cinnamomi [1]; 7/10, mean of 10): 39.8 a cm | Dry Root Weight (Phytophthora cinnamomi [2]; 1/13): 96.0 ab g | Fresh Shoot Weight (Phytophthora cinnamomi [2]; 1/13): 81.6 a g | Dry Root Weight (Phytophthora cinnamomi [2]; 12/12): 76.4 a g | Fresh Shoot Weight (Phytophthora cinnamomi [2]; 12/12): 64.8 a g | Marketability: 1(dead)-5(excellent) Scale (Phytophthora cinnamomi [2]; Dec. 12, 2004): 4.6 a | Height (Phytophthora cinnamomi [2]; Dec. 12, 2004): 34.6 ab cm | Marketability: 1(dead)-5(excellent) Scale (Phytophthora cinnamomi [2]; Jan. 13, 2005): 4.7 ab | Height (Phytophthora cinnamomi [2]; Jan. 13, 2005): 36.7 ab cm | Marketability: 1(dead)-5(excellent) Scale (Phytophthora cinnamomi [2]; Nov. 21, 2004): 5.0 a | Height (Phytophthora cinnamomi [2]; Nov. 21, 2004): 13.3 ab cm | Dry Root Weight (Phytophthora nicotianae; 6/21): 44.2 a g | Fresh Shoot Weight (Phytophthora nicotianae; 6/21): 49.0 ab g | Dry Root Weight (Phytophthora nicotianae; 7/10): 55.5 ab g | Fresh Shoot Weight (Phytophthora nicotianae; 7/10): 70.3 ab g | Marketability: 1(dead)-5(excellent) Scale (Phytophthora nicotianae; Dec. 17, 2004): 4.4 ab | Height (Phytophthora nicotianae; Dec. 17, 2004): 27.5 ab cm | Marketability: 1(dead)-5(excellent) Scale (Phytophthora nicotianae; Jan. 6, 2005): 4.4 ab | Height (Phytophthora nicotianae; Jan. 6, 2005): 35.5 ab cm | Marketability: 1(dead)-5(excellent) Scale (Phytophthora nicotianae; Nov. 25, 2004): 5 a | Height (Phytophthora nicotianae; Nov. 25, 2004): 13.7 a cm | Dry Root Weight [3]: 0.12 bc g | Dry Shoot Weight [3]: 0.90 bc g | Dry Root Weight (Pythium irregulare [4]): 0.04 c g | Dry Shoot Weight (Pythium irregulare [4]): 0.28 g·days | Percent Damping-Off, Pre-emergence (Pythium aphanidermatum): 4.6 bc Percent | Percent Damping-Off, Total (Pythium aphanidermatum): 9.3 c Percent | Dry Root Weight (Rhizoctonia solani): 0.06 b g | Dry Shoot Weight (Rhizoctonia solani): 0.42 c g | Dry Root Weight (Pythium irregulare [5]): 0.10 abc g | Dry Shoot Weight (Pythium irregulare [5]): 0.66 ab g | Dry Root Weight [6]: 0.03 b g | Dry Shoot Weight [6]: 0.17 c g

Reference: patent US9681668B2, “Control of plant diseases and enhancing plant growth using a combination of a Trichoderma virens species and a rhizosphere competent Trichoderma harzianum species” (priority 2008, dated 2017)
